Counter-ions that a name gives are not always drawn.
Columns and labels:
[1] = system: PC-12 cells; assay: PC-12 binding assay (cell uptake with or without desipramine); type: cell-based, rat; conditions: 0.1 μCi test agent, 60 min at 37° C.; for PC-12 (% bound) Block: with 1 μM desipramine (nonspecific uptake); for PC-12 (% bound) Control: without desipramine (total uptake)
Protocol: Rat pheochromocytoma cell line (PC-12) were purchased from the American Type Culture Collection (ATCC) then cultured in collagen-coated flasks (BD Bio Coat Collagen Type 1, BD Biosciences) using a growth media composed of F-12 K media, 2 mM L-glutamine, 15% horse serum, 2.5% fetal bovine serum (FBS) and 1% penicillin-streptomycin.
Prepared PC-12 cells were seeded into 6-well plates at a density of 1×10^6 cells/well with 2 mL of growth media and maintained 24 h at 37° C. under a 5% CO2 atmosphere. The media was exchanged and each well treated with 0.1 μCi test agent, with or without 1 μM desipramine. The resulting mixture was incubated for 60 min at 37° C. and 5% CO2 then centrifuged at 500×g for 3 min and washed with PBS buffer. Radioactivity associated with the cells was then measured, and total uptake determined in the wells without desipramine; nonspecific uptake was measured in the associated wells containing desipramine. The specific NET mediated cell uptake is calculated as percent total uptake minus percent nonspecific uptake.

[2] = Tissue distribution in rats; type: in vivo; conditions: bolus iv injection
Protocol: (§1) Male Sprague Dawley rats (300-500 g, Taconic), and male New Zealand rabbits (3-4 kg, Covance) were used in accordance with our Institutional Animal Care and Use Committee. Rats were anesthetized with sodium pentobarbital (50 mg/kg, i.p.) and the left femoral vein cannulated with PESO tubing for drug injection. Rabbits were pre-sedated with acepromazine (0.75 mg/kg i.m.) then anesthetized with ketamine (40 mg/kg, i.m.) and xylazine (8 mg/kg, i.m); the marginal ear vein was cannulated for drug injection. Additional doses of anesthetics were given as needed.
(§2) After preparation, each animal received a bolus injection of the test agent via the venous catheter. Rats and rabbits were euthanized after the injection and samples of the blood, heart, lung, liver, spleen, kidney, femur and muscle were collected. All samples were weighed and counted for radioactivity (Wallac Wizard 1480, PerkinElmer Life and Analytical Sciences, Shelton, Conn.); net radioactivity administered in each animal was determined by subtracting the residual activity in both the syringe and venous catheter. Tissue uptake of each agent was determined as a percentage of the injected dose per gram tissue (% ID/g).

[3] = molecular target: T1, human norepinephrine transporter (Homo sapiens, UniProt P23975); assay: Norepinephrine transporter binding assay ([3H]desipramine competition, MDCK cell membranes); conditions: competition with [3H]desipramine 2 nM, 2 h on ice; read-out: NET Affinity
T1 construct: expressed in transfected cells; host or cells: MDCK cells (membrane preparation)
T1 sequence (P23975 whole entry): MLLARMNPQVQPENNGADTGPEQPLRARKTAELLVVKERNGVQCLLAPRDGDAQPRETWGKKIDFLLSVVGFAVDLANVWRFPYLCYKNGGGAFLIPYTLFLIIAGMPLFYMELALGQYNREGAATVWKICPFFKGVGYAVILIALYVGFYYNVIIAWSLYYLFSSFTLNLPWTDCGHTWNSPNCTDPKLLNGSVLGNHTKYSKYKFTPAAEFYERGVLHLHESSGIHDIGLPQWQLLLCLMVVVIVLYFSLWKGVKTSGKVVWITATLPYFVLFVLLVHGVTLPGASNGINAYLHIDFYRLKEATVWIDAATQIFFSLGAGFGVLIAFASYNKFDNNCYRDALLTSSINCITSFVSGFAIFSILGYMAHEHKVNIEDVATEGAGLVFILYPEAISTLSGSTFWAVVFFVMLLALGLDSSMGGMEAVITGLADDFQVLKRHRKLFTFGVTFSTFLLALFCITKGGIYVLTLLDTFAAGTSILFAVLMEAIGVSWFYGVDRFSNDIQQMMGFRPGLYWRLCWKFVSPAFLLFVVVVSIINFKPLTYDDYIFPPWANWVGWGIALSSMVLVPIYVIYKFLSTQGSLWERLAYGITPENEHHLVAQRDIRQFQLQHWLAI
Protocol: Individual inhibitors were dissolved in incubation buffer (50 mM Tris-HCl, 10% sucrose, pH 7.4) at appropriate dilutions. The inhibitor solutions were added to the wells of a microtiter plate (40 μL/well) in triplicate. Each well of test agent (and appropriate control wells) was treated with a mixture of MDCK cell membrane preparation (22.4 μg of membrane) expressing human norepinephrine transporter (Bmax=3.7 pmol norepinephrine transporter/mg protein), and [^3H]desipramine (2 nM, 64.8 Ci/mmol) in a total volume of 0.2 mL. The resulting mixtures were incubated for 2 h on ice.
A 96 well GF/C filter plate was presoaked with coating buffer (0.5% polyvinylpyrrolidine and 0.1% Tween 20) for 2 h at room temperature, then washed with incubation buffer (6×0.2 mL). The competition reactions were transferred to the coated plate and filtered. The filter plate was washed (6×0.2 mL) with ice cold wash buffer (50 mM Tris-HCl, 0.9% NaCl, pH 7.4) then dried overnight and treated with 25 μL scintillation fluid for analysis on a plate reader (Microbeta TriLux 1450 LSC and Luminescence counter, Perkin Elmer, Shelton Conn.).

[4] = Tissue distribution in rabbits; type: in vivo; conditions: bolus iv injection
Protocol: as §1, §2

SMILES	PC-12 (% bound) Block [1] [% bound]	PC-12 (% bound) Control [1] [% bound]	Rat Blood [2] [% ID/g]	Rat Heart [2] [% ID/g]	Rat Liver [2] [% ID/g]	Rat Lung [2] [% ID/g]	Ki [3] [µM]	Rabbit Blood [4] [% ID/g]	Rabbit Heart [4] [% ID/g]	Rabbit Liver [4] [% ID/g]	Rabbit Lung [4] [% ID/g]
N=C1NCC(c2ccc(OCCF)cc2)N1 (stereo not drawn) [Example 1, 4-(4-(2-fluoroethoxy)phenyl)imidazolidin-2-imine]	0.30	3.1	0.18	1.03	0.15	0.24	7.27				
N=C1NCC(c2ccc(OCCF)c(Br)c2)N1 (stereo not drawn) [Example 2, 4-(3-bromo-4-(2-fluoroethoxy)phenyl)imidazolidin-2-imine, hydrochloric acid salt]	0.60	3.20	0.19	1.33	0.25	0.94	11.2				
N=C(N)NCc1ccc2cc(OCCF)ccc2c1 [Example 11, 1-((6-(2-fluoroethoxy)naphthalen-2-yl)methyl)guanidine]	2.70	23.90	0.51 ± 0.11	1.74 ± 0.27	0.61 ± 0.40	2.71 ± 0.51	0.12	0.04 ± 0.01	0.39 ± 0.02	0.02 ± 0.00	0.39 ± 0.11
N=C(N)NCCc1c[nH]c2ccc(OCCF)cc12 [Example 21, 1-(2-(5-(2-fluoroethoxy)-1H-indol-3-yl)ethyl)guanidine]	0.10	0.10	0.41	0.35	1.01	0.38	1.19				
N=C(N)NCCc1ccc(CCCF)cc1 [Example 33, 1-(4-(3-fluoropropyl)phenethyl)guanidine]	1.50	2.30	0.10 ± 0.01	1.94 ± 0.16	0.21 ± 0.04	0.66 ± 0.11	3.95				

More lines, now with the values ahead:

PC-12 (% bound) Block [1] [% bound]	PC-12 (% bound) Control [1] [% bound]	Rat Blood [2] [% ID/g]	Rat Heart [2] [% ID/g]	Rat Liver [2] [% ID/g]	Rat Lung [2] [% ID/g]	Ki [3] [µM]	Rabbit Blood [4] [% ID/g]	Rabbit Heart [4] [% ID/g]	Rabbit Liver [4] [% ID/g]	Rabbit Lung [4] [% ID/g]	SMILES
2.36	32.76	0.35 ± 0.15	0.71 ± 0.24	0.15 ± 0.03	1.12 ± 0.29	7.35	0.01	0.29	0.02	0.39	N=C(N)NCc1ccc(CF)c(Br)c1 [Example 3, 1-(3-bromo-4-(fluoromethyl)benzyl)guanidine]
0.50	1.00	0.13 ± 0.02	1.04 ± 0.95	0.37 ± 0.24	0.34 ± 0.18	5.41	0.014	0.025	0.012	0.031	N=C(N)NCc1ccc(COCCF)c(Br)c1 [Example 4, 1-(3-bromo-4-((2-fluoroethoxy)methyl)benzyl)guanidine]
0.90	1.00	0.69	1.23	0.26	0.59	18.7					N=C(N)NCc1ccc(CCF)cc1 [Example 5, 1-[4-(2-fluoroethyl)benzyl]guanidine]
0.60	1.30	0.21	1.61	0.27	0.94	17.4					N=C(N)NCc1ccc(CCF)c(Br)c1 [Example 8, 1-(3-bromo-4-(2-fluoroethyl)benzyl)guanidine]

Reference: patent US9550000B2, “Compositions, methods, and systems for the synthesis and use of imaging agents” (Lantheus Medical Imaging, Inc., priority 2011, dated 2017)
